Test [1] has as its target p110 alpha (Homo sapiens (Human), UniProt P42336). The experiment in a line: PI3K isoform inhibition assay, p110 alpha (for alpha/delta selectivity). The following applies: ratio of biochemical IC50 values. The procedure:
(§1) PI3K enzymatic activity was assayed by measuring the amount of product phosphatidylinositol 3,4,5-phosphate (PIP3) formed from substrate 4,5 phosphatidylinositol 4,5-phosphate (PIP2) using a fluorescence polarization displacement assay. The decrease in fluorescence polarization of a fluorescent PIP3 probe is measured as it is displaced from a PIP3-binding protein GRP-1 detector by PI3K-catalyzed product. […] The kinase reactions were initiated by the addition of 40 ng/mL p110α/p85α, 300 ng/mL p110β/p85α, 40 ng/mL p110γ, or 40 ng/mL p110δ/p85α (Upstate Group, Millipore; Dundee, UK), and 10 μM PIP2 (Echelon Biosciences) to the wells. […] After 60 minutes of incubation at room temperature to allow equilibration of labeled and unlabeled PIP3 binding, the parallel and perpendicular components of the fluorescence emissions from each sample were measured at an excitation wavelength of 530 nm and an emission wavelength of 590 nm using an Envision fluorescent plate reader with a rhodamine filter (PerkinElmer Life and Analytical Sciences; Wellesley, Mass.). The assay is capable of detecting 0.1-2.0 μM PIP3 product. The IC50 values were obtained by fitting the dose-dependent inhibition data to a 4-parameter equation using Assay Explorer software (MDL, San Ramon, Calif.).
The same protocol may be used to establish IC50 values for p110α (alpha) PI3K binding.
(§2) The four Class I PI 3-kinases are cloned into baculovirus vectors as follows: […]

The target in test [2] is p110 delta (Homo sapiens (Human), UniProt O00329). The experiment in a line: PI3K isoform inhibition assay, p110 delta (fluorescence polarization displacement). Format: biochemical. The procedure: as §1
The Formula I compound was serially diluted in 100% DMSO. The kinase reaction was incubated for 1 h at room temperature, and the reaction was terminated by the addition of PBS. IC50 values were subsequently determined using sigmoidal dose-response curve fit (variable slope).
as §2
In general terms: In fluorescence polarisation assays a small probe gives low polarisation when free and higher when bound to something large.

The term IC50 denotes the concentration that gives 50% inhibition.

Chain of p110 alpha (P42336 whole entry, canonical isoform): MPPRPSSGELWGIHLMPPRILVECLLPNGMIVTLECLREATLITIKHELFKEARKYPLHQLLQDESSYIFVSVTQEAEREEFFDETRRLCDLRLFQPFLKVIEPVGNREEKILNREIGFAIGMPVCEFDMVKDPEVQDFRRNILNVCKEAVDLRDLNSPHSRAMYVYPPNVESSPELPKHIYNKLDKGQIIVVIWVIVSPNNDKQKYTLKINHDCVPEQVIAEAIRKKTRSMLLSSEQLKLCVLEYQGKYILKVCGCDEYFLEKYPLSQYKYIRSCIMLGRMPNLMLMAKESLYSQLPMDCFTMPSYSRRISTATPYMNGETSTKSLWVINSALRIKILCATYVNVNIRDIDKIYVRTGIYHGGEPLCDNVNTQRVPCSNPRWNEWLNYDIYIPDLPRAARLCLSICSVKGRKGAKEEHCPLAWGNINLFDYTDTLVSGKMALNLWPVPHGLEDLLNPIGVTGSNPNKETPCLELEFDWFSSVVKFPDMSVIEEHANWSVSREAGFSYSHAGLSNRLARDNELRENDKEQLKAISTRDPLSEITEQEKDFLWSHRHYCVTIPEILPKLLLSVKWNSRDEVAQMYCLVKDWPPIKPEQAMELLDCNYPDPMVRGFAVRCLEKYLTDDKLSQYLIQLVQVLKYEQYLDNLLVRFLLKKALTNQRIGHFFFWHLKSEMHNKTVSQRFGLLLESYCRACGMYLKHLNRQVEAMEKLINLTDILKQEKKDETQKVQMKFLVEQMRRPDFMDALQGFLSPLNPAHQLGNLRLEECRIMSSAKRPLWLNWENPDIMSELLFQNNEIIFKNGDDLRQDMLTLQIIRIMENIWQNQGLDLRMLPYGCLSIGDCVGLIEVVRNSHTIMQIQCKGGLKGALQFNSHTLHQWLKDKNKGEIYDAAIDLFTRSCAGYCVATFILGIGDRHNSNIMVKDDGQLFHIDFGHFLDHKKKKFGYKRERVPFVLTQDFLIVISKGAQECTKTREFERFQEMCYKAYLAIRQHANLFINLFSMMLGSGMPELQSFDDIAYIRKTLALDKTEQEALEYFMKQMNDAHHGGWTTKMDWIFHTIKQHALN
Chain of p110 alpha (P27986 whole entry partner, canonical isoform): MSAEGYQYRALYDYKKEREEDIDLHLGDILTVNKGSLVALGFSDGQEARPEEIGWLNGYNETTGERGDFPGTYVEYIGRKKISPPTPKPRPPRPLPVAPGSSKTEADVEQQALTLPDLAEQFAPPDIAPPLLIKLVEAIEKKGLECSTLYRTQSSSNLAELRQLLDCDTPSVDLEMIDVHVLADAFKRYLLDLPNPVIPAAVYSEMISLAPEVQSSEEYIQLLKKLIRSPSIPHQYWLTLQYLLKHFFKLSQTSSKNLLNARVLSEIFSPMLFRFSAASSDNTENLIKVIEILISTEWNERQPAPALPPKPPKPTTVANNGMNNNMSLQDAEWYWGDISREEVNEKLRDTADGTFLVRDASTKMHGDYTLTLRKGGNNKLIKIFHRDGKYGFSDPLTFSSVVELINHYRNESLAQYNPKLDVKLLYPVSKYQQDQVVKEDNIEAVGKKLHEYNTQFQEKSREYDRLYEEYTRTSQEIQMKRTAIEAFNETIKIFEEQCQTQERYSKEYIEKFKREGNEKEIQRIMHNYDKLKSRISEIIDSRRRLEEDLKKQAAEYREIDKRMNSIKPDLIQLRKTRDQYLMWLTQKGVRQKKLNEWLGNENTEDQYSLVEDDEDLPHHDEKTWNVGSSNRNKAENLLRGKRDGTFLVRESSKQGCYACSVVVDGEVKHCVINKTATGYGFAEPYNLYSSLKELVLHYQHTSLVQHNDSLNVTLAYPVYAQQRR
Chain of p110 delta (O00329 whole entry, canonical isoform): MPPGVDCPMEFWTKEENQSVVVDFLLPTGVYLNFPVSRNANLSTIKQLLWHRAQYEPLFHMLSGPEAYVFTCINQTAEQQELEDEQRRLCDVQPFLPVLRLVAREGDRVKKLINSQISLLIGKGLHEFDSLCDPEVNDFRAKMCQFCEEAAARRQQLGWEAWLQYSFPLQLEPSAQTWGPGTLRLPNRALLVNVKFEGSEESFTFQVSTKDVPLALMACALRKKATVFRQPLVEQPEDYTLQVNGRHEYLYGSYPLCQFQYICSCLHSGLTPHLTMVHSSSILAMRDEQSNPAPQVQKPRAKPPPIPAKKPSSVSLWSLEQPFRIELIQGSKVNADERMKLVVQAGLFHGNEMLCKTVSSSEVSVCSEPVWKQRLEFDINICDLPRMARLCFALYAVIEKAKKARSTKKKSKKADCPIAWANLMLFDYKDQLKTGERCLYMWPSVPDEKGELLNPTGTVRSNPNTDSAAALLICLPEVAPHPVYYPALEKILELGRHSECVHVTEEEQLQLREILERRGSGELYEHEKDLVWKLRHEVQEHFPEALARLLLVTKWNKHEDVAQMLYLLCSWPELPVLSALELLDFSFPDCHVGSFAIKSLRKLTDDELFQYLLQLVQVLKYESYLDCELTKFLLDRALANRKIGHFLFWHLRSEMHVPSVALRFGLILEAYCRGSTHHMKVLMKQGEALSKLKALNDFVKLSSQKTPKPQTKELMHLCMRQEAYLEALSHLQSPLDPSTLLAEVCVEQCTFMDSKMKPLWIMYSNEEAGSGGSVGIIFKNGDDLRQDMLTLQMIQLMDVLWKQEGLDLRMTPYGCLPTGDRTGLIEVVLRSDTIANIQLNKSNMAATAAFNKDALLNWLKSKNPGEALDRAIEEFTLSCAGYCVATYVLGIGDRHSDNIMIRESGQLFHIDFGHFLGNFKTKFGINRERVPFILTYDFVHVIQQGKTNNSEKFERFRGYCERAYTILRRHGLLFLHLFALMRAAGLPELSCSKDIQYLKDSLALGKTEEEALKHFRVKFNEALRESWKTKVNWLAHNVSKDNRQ
Chain of p110 delta (P27986 whole entry partner, canonical isoform): as the sequence (P27986 whole entry partner, canonical isoform) above

For the compound `CC(C)n1ncnc1-c1cn2c(n1)-c1cnc(N3CCCC3CN3CCCC3)cc1OCC2` (stereo not drawn) [Example 105, 2-(1-isopropyl-1H-1,2,4-triazol-5-yl)-9-(2-(pyrrolidin-1-ylmethyl)pyrrolidin-1-yl)-5,6-dihydroimidazo[1,2-d]pyrido[3,4-f][1,4]oxazepine], the “IC50 p110 alpha/IC50 p110 delta” value in test [1] stood at 18.3. Also, in test [2], the IC50 stood at 0.707 nM.

Regarding `CC(C)n1ncnc1-c1cn2c(n1)-c1cnc(N3CCCC3C3CCN(C)CC3)cc1OCC2` (stereo not drawn) [Example 106, 2-(1-isopropyl-1H-1,2,4-triazol-5-yl)-9-(2-(1-methylpiperidin-4-yl)pyrrolidin-1-yl)-5,6-dihydroimidazo[1,2-d]pyrido[3,4-f][1,4]oxazepine], the “IC50 p110 alpha/IC50 p110 delta” value in test [1] came to 25.7. This compound displayed an IC50 in test [2] of 0.541 nM.

In the case of `CC(C)n1ncnc1-c1cn2c(n1)-c1ccc(-c3ccccc3S(N)(=O)=O)cc1OCC2` [Example 109, 2-(2-(1-isopropyl-1H-1,2,4-triazol-5-yl)-5,6-dihydrobenzo[f]imidazo[1,2-d][1,4]oxazepin-9-yl)benzenesulfonamide], the “IC50 p110 alpha/IC50 p110 delta” value in test [1] worked out at 17.3. Besides, in test [2], the IC50 was 14 nM.

As for `Cc1nc(-c2cn3c(n2)-c2ccc(-c4ncnn4C4CCN(C(C)(C)C)CC4)cc2OCC3)n(C(C)C)n1` [Example 258, 9-(1-(1-tert-butylpiperidin-4-yl)-1H-1,2,4-triazol-5-yl)-2-(1-isopropyl-3-methyl-1H-1,2,4-triazol-5-yl)-5,6-dihydrobenzo[f]imidazo[1,2-d][1,4]oxazepine], the “IC50 p110 alpha/IC50 p110 delta” value in test [1] worked out at 10.2. For the same compound, the IC50 in test [2] is 82.1 nM.

`Cc1nc(-c2cn3c(n2)-c2ccc(OC4(CN5CCN(C)CC5)CC4)cc2OCC3)n(C(C)C)n1` [Example 259, 2-(1-isopropyl-3-methyl-1H-1,2,4-triazol-5-yl)-9-(1-((4-methylpiperazin-1-yl)methyl)cyclopropoxy)-5,6-dihydrobenzo[f]imidazo[1,2-d][1,4]oxazepine]: in test [1], the “IC50 p110 alpha/IC50 p110 delta” value turned out to be 26.1. In addition, in test [2], the IC50 is 3.31 nM.

For the compound `Cc1nc(-c2cn3c(n2)-c2ccc(OC4CC(C)CN(C(C)C)C4)cc2OCC3)n(C(C)C)n1` (stereo not drawn) [Example 260, 2-(1-isopropyl-3-methyl-1H-1,2,4-triazol-5-yl)-9-(1-isopropyl-5-methylpiperidin-3-yloxy)-5,6-dihydrobenzo[f]imidazo[1,2-d][1,4]oxazepine], the “IC50 p110 alpha/IC50 p110 delta” value in test [1] is given as 12.8. This compound also displayed an IC50 in test [2] of 2.56 nM.

Turning to `Cc1nc(-c2cn3c(n2)-c2ccc(OC4(C)CCN(C(C)C)C4)cc2OCC3)n(C(C)C)n1` (stereo not drawn) [Example 261, 2-(1-isopropyl-3-methyl-1H-1,2,4-triazol-5-yl)-9-(1-isopropyl-3-methylpyrrolidin-3-yloxy)-5,6-dihydrobenzo[f]imidazo[1,2-d][1,4]oxazepine], the “IC50 p110 alpha/IC50 p110 delta” value in test [1] turned out to be 14.4. In test [2], this compound had an IC50 of 0.638 nM.

In the case of `Cc1nc(-c2cn3c(n2)-c2ccc(-c4ccnn4C4CCCN(Cc5ccccc5)C4)cc2OCC3)n(C(C)C)n1` (stereo not drawn) [Example 262, 9-(1-(1-benzylpiperidin-3-yl)-1H-pyrazol-5-yl)-2-(1-isopropyl-3-methyl-1H-1,2,4-triazol-5-yl)-5,6-dihydrobenzo[f]imidazo[1,2-d][1,4]oxazepine], in test [1], the “IC50 p110 alpha/IC50 p110 delta” value was 21.8. The IC50 in test [2] worked out at 8.53 nM.

Consider `Cc1cc2c(cc1-c1ccnn1C1CCN(C)CC1)OCCn1cc(-c3ncnn3C(C)C)nc1-2` [Example 264, 2-(1-isopropyl-1H-1,2,4-triazol-5-yl)-10-methyl-9-(1-(1-methylpiperidin-4-yl)-1H-pyrazol-5-yl)-5,6-dihydrobenzo[f]imidazo[1,2-d][1,4]oxazepine], for which the “IC50 p110 alpha/IC50 p110 delta” value in test [1] worked out at 10. For the same compound, the IC50 in test [2] is 17.3 nM.

Turning to `Cc1nc(-c2cn3c(n2)-c2ccc(-c4ccnn4C4CCN(C(C)(C)C)CC4)cc2OCC3)n(C(C)C)n1` [Example 269, 9-[2-(1-tert-butyl-4-piperidyl)pyrazol-3-yl]-2-(2-isopropyl-5-methyl-1,2,4-triazol-3-yl)-5,6-dihydroimidazo[1,2-d][1,4]benzoxazepine], the “IC50 p110 alpha/IC50 p110 delta” value in test [1] is 9.8. For the same compound, the IC50 in test [2] worked out at 4.57 nM.

On to `CC(C)n1ncnc1-c1cn2c(n1)-c1cc([S+]([O-])C3CCN(C(C)(C)C)CC3)ccc1OCC2` (stereo not drawn) [Example 270, 10-(1-tert-butylpiperidin-4-ylsulfinyl)-2-(1-isopropyl-1H-1,2,4-triazol-5-yl)-5,6-dihydrobenzo[f]imidazo[1,2-d][1,4]oxazepine], for which the “IC50 p110 alpha/IC50 p110 delta” value in test [1] is on record as 184. The compound also had an IC50 in test [2] of 0.811 nM.

Consider `Cc1nc(-c2cn3c(n2)-c2ccc(OC4(C)CNC4)cc2OCC3)n(C(C)C)n1` [Example 271, 2-(2-isopropyl-5-methyl-1,2,4-triazol-3-yl)-9-(3-methylazetidin-3-yl)oxy-5,6-dihydroimidazo[1,2-d][1,4]benzoxazepine], for which the “IC50 p110 alpha/IC50 p110 delta” value in test [1] is on record as 9.8. In test [2], this compound had an IC50 of 0.633 nM.

For the compound `Cc1nc(-c2cn3c(n2)-c2ccc(N4CCCC4C4CCN(CC(C)(C)O)CC4)cc2OCC3)n(C(C)C)n1` (stereo not drawn) [Example 272, 1-[4-[1-[2-(2-isopropyl-5-methyl-1,2,4-triazol-3-yl)-5,6-dihydroimidazo[1,2-d][1,4]benzoxazepin-9-yl]pyrrolidin-2-yl]-1-piperidyl]-2-methyl-propan-2-ol], the “IC50 p110 alpha/IC50 p110 delta” value in test [1] was 49.9. Besides, the IC50 in test [2] is 0.986 nM.

For the compound `Cc1nc(-c2cn3c(n2)-c2cc(C(=O)N4CCN(C(C)(C)C)CC4)c(F)cc2OCC3)n(C(C)C)n1` [Example 273, (4-tert-butylpiperazin-1-yl)-[9-fluoro-2-(2-isopropyl-5-methyl-1,2,4-triazol-3-yl)-5,6-dihydroimidazo[1,2-d][1,4]benzoxazepin-10-yl]methanone], in test [1], the “IC50 p110 alpha/IC50 p110 delta” value was found to be 69.9. This compound also showed an IC50 in test [2] of 2.73 nM.

Consider `Cc1nc(-c2cn3c(n2)-c2ccc(N4CCCC4C4CCN(CC(C)(C)O)CC4)cc2OCC3)n(C(C)C)n1` (stereo not drawn) [Example 274, 1-[4-[1-[2-(2-isopropyl-5-methyl-1,2,4-triazol-3-yl)-5,6-dihydroimidazo[1,2-d][1,4]benzoxazepin-9-yl]pyrrolidin-2-yl]-1-piperidyl]-2-methyl-propan-2-ol], for which the “IC50 p110 alpha/IC50 p110 delta” value in test [1] is recorded as 34. Also, the IC50 in test [2] is 2.2 nM.

In the case of `Cc1nc(-c2cn3c(n2)-c2ccc(OC4(c5ccccc5)CN(C(C)C)C4)cc2OCC3)n(C(C)C)n1` [Example 275, 2-(2-isopropyl-5-methyl-1,2,4-triazol-3-yl)-9-(1-isopropyl-3-phenyl-azetidin-3-yl)oxy-5,6-dihydroimidazo[1,2-d][1,4]benzoxazepine], in test [1], the “IC50 p110 alpha/IC50 p110 delta” value is on record as 17. Also, the IC50 in test [2] was determined as 6.2 nM.

For `Cc1nc(-c2cn3c(n2)-c2cc(C(O)C4CCN(C)CC4)ccc2OCC3)n(C(C)C)n1` (stereo not drawn) [Example 276, [2-(2-isopropyl-5-methyl-1,2,4-triazol-3-yl)-5,6-dihydroimidazo[1,2-d][1,4]benzoxazepin-10-yl]-(1-methyl-4-piperidyl)methanol], the “IC50 p110 alpha/IC50 p110 delta” value in test [1] was determined as 10.8. In test [2], this compound came in with an IC50 of 17.9 nM.

Consider `Cc1nc(-c2cn3c(n2)-c2ccc(-c4cnn(C(C)C)c4CN4CCN(C(C)(C)C)CC4)cc2OCC3)n(C(C)C)n1` [Example 277, 9-[5-[(4-tert-butylpiperazin-1-yl)methyl]-1-isopropyl-pyrazol-4-yl]-2-(2-isopropyl-5-methyl-1,2,4-triazol-3-yl)-5,6-dihydroimidazo[1,2-d][1,4]benzoxazepine], for which the “IC50 p110 alpha/IC50 p110 delta” value in test [1] turned out to be 27.8. Further, the IC50 in test [2] came out at 4 nM.

On to `Cc1nc(-c2cn3c(n2)-c2ccc(-c4cnn(C(C)C)c4CN4CCN(C)CC4)cc2OCC3)n(C(C)C)n1` [Example 278, 9-[1-isopropyl-5-[(4-methylpiperazin-1-yl)methyl]pyrazol-4-yl]-2-(2-isopropyl-5-methyl-1,2,4-triazol-3-yl)-5,6-dihydroimidazo[1,2-d][1,4]benzoxazepine], for which the “IC50 p110 alpha/IC50 p110 delta” value in test [1] came to 33.4. In test [2], this compound displayed an IC50 of 3.34 nM.

Turning to `Cc1nc(-c2cn3c(n2)-c2ccc(-c4cn(C)nc4C4CCCN(C(C)C)C4)cc2OCC3)n(C(C)C)n1` (stereo not drawn) [Example 280, 2-(2-isopropyl-5-methyl-1,2,4-triazol-3-yl)-9-[3-(1-isopropyl-3-piperidyl)-1-methyl-pyrazol-4-yl]-5,6-dihydroimidazo[1,2-d][1,4]benzoxazepine], the “IC50 p110 alpha/IC50 p110 delta” value in test [1] is listed as 32.7. For the same compound, in test [2], the IC50 stood at 0.878 nM.

For `Cc1nc(-c2cn3c(n2)-c2cc(C(=O)N4CCN(C(C)(C)CO)CC4)c(F)cc2OCC3)n(C(C)C)n1` [Example 281, [9-fluoro-2-(2-isopropyl-5-methyl-1,2,4-triazol-3-yl)-5,6-dihydroimidazo[1,2-d][1,4]benzoxazepin-10-yl]-[4-(2-hydroxy-1,1-dimethyl-ethyl)piperazin-1-yl]methanone], the “IC50 p110 alpha/IC50 p110 delta” value in test [1] was found to be 30.6. For the same compound, in test [2], the IC50 is 5.63 nM.

The values are drawn from patent US9090628B2, “Benzoxazepin compounds selective for PI3K P110 delta and methods of use” (GENENTECH, INC., priority 2011, dated 2015).
